Data taken from patent US11821109B2, “Compartmentalised combinatorial chemistry by microfluidic control” (President and Fellows of Harvard College, priority 2004, dated 2023).
Each block holds one molecule with its values, some of them ahead of it.

Legend:
[1] = target: T1, E. coli β-galactosidase (LacZ) (Escherichia coli, UniProt P00722); test: LacZ inhibition assay in microfluidic droplets with fluorogenic substrate FMG; type: biochemical
Method: In the enzyme inhibition assay, the rate of catalysis is determined by using a non-fluorescent substrate for LacZ, fluorescein mono-β-D-galactoside (FMG), and measuring the appearance of the fluorescent product, fluorescein (excitation […], emission 514 nm). All components of the LacZ inhibition assay are dissolved in assay buffer (10 mM MgCl2, 50 mM NaCl, 1 mM DTT, 100 μg/ml BSA, 10
Leading into each droplet forming module (FIG. 15) are two TEFLON® tubes leading from syringe pumps. The channels leading from each tube merge to create a single flow before entering the droplet forming module. The two syringes feeding into the first droplet forming module contain, (a) 50 μM PETG in assay buffer, and (b), assay buffer. The two syringes feeding into the second droplet forming module contain, (c) 100 nM LacZ in assay buffer, and (d), assay buffer. The two syringes feeding into the third droplet forming module contain, (e) 5 mM FMG in assay buffer, and (f), assay buffer. The final concentration of each component in each droplet is independently controllable by adjusting relative flow rates of each component and buffer solution while maintaining a constant combined flow rate from both syringes.
The first droplet fusion mixes the inhibitor (PETG) with the enzyme (LacZ). After the combined droplet has spent two minutes in a delay line it is fused with a third droplet containing the fluorogenic enzyme substrate (FMG). Finally, after all the components are mixed the reaction is observed by measuring fluorescence of individual droplets or by integrating fluorescent light from droplets with the same concentration of each component during 10-second exposure time at multiple points in the second 10 min long delay line. Each fluorescence intensity value at different positions is proportional to the amount of product at different reaction times. Rate of product formation is linear during initial reaction time and initial rate (v) can be determined from linear fitting. […]

[2] = target: T1, E. coli β-galactosidase (LacZ); conditions: Huang, 1991, cited from earlier work
[3] = Compartmentalisation of small molecules in water-in-fluorocarbon emulsions (exchange between microdroplets); type: physicochemical; conditions: water-in-perfluorooctyl bromide emulsion; 24 hours after mixing
Method: Water-in-fluorocarbon emulsions containing 95% (v/v) perfluorooctyl bromide, 5% (v/v) phosphate buffered saline containing the molecule of interest in solution, and 2% (w/v) C8F17C11H22OP(O)[N(CH2CH2)2O]2 (F8H1 IDMP) as surfactant were formed essentially as (Sadtler et al., 1996) by extrusion (15 times) through 14 μm filters (Osmonics) or by homogenising for 5 min at 25,000 r.p.m. using an Ultra-Turrax T8 Homogenizer (DCA) with a 5 mm dispersing tool. Emulsions were made containing a series of small fluorescent molecules dissolved in the aqueous phase at concentrations from […] to 2 mM. These molecules, including calcein, texas red, fluorescein, coumarin 102, 7-hydroxycoumarm-3-carboxylic acid and 7-diethylamino-4-methyl coumarin (coumarin 1), had molecular weights from 203 to 625 Da and Log P values—calculated using SRC's Log Kow/KowWin Program (Meylan and Howard, 1995)—ranging from −0.49 to 4.09. […]
Compartmentalisation of small molecules in a water-in-fluorocarbon emulsions made using microfluidic systems. […] These molecules, including calcein, texas red, fluorescein, coumarin 102, 7-hydroxycoumarin-3-carboxylic acid and 7-diethylamino-4-methyl coumarin (coumarin 1), had molecular weights from 203 to 625 Da and Log P values—calculated using SRC's Log Kow/KowWin Program (Meylan and Howard, 1995)—ranging from −0.49 to 4.09. […]

PTP1B = target: T2, PTP1B (Homo sapiens, UniProt P18031); conditions: cited from earlier work
T2 sequence (P18031 1-435): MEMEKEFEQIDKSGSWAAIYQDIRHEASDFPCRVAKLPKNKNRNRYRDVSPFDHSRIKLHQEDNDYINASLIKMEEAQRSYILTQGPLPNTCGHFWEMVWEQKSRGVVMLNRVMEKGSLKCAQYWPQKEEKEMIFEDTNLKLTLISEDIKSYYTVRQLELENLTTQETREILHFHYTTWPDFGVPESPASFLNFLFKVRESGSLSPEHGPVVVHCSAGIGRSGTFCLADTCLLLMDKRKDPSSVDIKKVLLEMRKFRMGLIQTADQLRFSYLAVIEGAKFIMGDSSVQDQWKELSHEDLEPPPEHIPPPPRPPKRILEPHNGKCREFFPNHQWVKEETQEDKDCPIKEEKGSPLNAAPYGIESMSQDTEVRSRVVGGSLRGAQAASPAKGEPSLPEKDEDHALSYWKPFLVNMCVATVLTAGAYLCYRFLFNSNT

[4] = target: T3, human recombinant PTP1B, residues 1-322 (Homo sapiens, UniProt P18031); test: Screening for PTP1B inhibitors in microcapsules in a microfluidic system, fluorogenic substrate DiFMUP; type: biochemical; conditions: Example 2, 100 μM compound solution, PTP1B 50 mU/ml
T3 construct: human recombinant PTP1B, residues 1-322; purchased Biomol Research Laboratories, Inc
T3 sequence (P18031 1-322): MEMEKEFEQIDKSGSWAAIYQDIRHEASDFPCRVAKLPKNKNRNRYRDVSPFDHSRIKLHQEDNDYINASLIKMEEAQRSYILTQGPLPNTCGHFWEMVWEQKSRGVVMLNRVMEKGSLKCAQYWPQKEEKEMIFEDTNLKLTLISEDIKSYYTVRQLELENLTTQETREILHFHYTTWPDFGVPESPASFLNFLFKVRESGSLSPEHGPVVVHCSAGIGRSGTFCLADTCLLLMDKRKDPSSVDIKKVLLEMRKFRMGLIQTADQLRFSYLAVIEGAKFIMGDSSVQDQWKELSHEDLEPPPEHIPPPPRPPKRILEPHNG
Method: All water-soluble reagents are dissolved in (25 mM HEPES, pH 7.4, 125 mM NaCl, 1 mM EDTA), a buffer compatible with PTP1B activity. […] Each microcapsule containing target enzyme is fused with a microcapsule containing compound 2 or a microcapsule containing hydrocinnamic acid. Microcapsules containing either compound 2 or hydrocinnamic acid can be formed by switching between injection with syringes containing compound 2 and hydrocinnamic acid.
After microcapsule fusion the contents are rapidly mixed. After this point the microcapsules are run for up to 1 min through a 60 cm long microchannel (to allow inhibitor binding). This microchannel is then merged with a second microchannel containing aqueous microcapsules containing the fluorogenic PTP1B substrate 6,8-difluoro-4-methylumbelliferyl phosphate (DiFMUP) (Molecular Probes) in 25 mM HEPES, pH 7.4, 125 mM NaCl, 1 mM EDTA and the microcapsules fused pairwise. […] Fluorescence of the microcapsules due to production of DiFMU (excitation/emmission maxima 358/452 nm; blue fluorescence) is measured. […]
The 96 mixtures are distributed into 96 wells of a microtitre plate. […] Inhibitors reduce the amount of non-fluorescent substrate (DiFMUP) converted to the dephosphorylated product (DiFMU; excitation/emmission maxima 358/452 nm; blue fluorescence). Microcapsule fluorescence is then analysed.

[5] = 30 nM LacZ, 0 to 13 μM PETG, 10 to 700 μM FMG

T1 sequence (P00722 2-1024): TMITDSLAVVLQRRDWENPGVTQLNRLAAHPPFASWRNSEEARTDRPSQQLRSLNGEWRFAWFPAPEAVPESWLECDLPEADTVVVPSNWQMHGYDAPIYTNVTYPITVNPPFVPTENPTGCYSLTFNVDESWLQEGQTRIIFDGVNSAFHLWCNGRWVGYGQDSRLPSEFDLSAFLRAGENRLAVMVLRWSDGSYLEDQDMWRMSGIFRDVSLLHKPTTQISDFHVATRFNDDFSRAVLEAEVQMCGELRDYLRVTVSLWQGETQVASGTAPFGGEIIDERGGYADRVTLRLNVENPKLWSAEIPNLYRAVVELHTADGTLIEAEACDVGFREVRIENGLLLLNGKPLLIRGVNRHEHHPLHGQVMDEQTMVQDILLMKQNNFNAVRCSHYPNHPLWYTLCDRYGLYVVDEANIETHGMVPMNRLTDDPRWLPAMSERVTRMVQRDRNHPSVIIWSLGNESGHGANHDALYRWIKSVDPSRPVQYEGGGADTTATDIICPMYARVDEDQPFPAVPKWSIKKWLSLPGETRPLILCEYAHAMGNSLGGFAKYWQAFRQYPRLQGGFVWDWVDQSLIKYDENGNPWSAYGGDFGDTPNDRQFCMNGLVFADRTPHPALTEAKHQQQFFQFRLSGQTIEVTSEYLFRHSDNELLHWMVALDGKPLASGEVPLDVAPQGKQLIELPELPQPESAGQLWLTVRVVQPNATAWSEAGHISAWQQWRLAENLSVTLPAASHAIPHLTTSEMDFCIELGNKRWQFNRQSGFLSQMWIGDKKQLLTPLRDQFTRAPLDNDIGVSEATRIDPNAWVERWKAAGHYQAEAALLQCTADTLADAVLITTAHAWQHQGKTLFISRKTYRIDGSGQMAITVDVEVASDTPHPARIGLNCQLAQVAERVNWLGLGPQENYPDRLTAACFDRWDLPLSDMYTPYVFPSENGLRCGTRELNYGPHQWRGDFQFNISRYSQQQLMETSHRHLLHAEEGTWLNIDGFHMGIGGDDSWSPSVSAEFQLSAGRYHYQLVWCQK

Molecule: O=C1OC2(c3ccc(O)cc3Oc3cc(O[C@@H]4O[C@H](CO)[C@H](O)[C@H](O)[C@H]4O)ccc32)c2ccccc21 (stereo partly drawn) [FMG, fluorescein mono-β-D-galactoside]
- XM of FMG for LacZ as determined [1, 5]: within 20% of the previously published value
- XM of FMG for LacZ, previously published value [2]: 118 µM

Molecule: OCC1OC(SCCc2ccccc2)C(O)C(O)C1O [PETG, phenylethyl β-D-thiogalactopyranoside]
- Ki of PETG for LacZ as determined [1, 5]: within the range of the previously published value
- Mode of inhibition ([1]; Lineweaver-Burk plot): competitive
- Ki ([2]; read-out: Ki of PETG for LacZ, previously published value): 0.98 µM

- Exchange between microdroplets/compartments [3]: No exchange
Molecule: O=C(O)CN(CC(=O)O)Cc1cc2c(cc1O)Oc1cc(O)c(CN(CC(=O)O)CC(=O)O)cc1C21OC(=O)c2ccccc21 [calcein]

- Fluorescence of the microcapsules due to production of DiFMU [4]: exhibiting blue fluorescence
Molecule: O=C(O)CCc1ccccc1 [hydrocinnamic acid]
- PTP1B inhibitor or not (statement) (PTP1B): not a PTP1B inhibitor

- Exchange between microdroplets/compartments [3]: No exchange
Molecule: texas red
